From the NIST ThermoML archive (doi:10.1016/j.tca.2018.01.023)
Numbers after ± are expanded uncertainties.

Assay: molar heat capacity at constant pressure
Details: 101.33 kPa, Crystal, Small sample (50 mg) DSC

[Ca+2].[O]=[Mo](=[O])([O-])[O-] [calcium molybdate(VI)]
Details	molar heat capacity at constant pressure [J/K/mol]
395.5 K	127.3 ± 5.4
396.4 K	127.5 ± 5.4
396.5 K	127.4 ± 5.4
397.4 K	127.6 ± 5.4
397.5 K	127.6 ± 5.4
398.4 K	127.6 ± 5.4
398.5 K	127.7 ± 5.4
399.4 K	127.7 ± 5.4
399.5 K	127.8 ± 5.4
400 K	127.9 ± 5.4
400.4 K	127.8 ± 5.4
400.5 K	127.9 ± 5.4
401.4 K	127.9 ± 5.4
401.5 K	128 ± 5.4
402.4 K	128.1 ± 5.4
402.5 K	128.1 ± 5.4
403.4 K	128.2 ± 5.4
403.5 K	128.2 ± 5.4
404.4 K	128.3 ± 5.4
404.5 K	128.3 ± 5.4
405.4 K	128.5 ± 5.5
405.5 K	128.3 ± 5.4
406.4 K	128.6 ± 5.5
406.5 K	128.4 ± 5.4
407.4 K	128.7 ± 5.5
407.5 K	128.5 ± 5.5
408.4 K	128.7 ± 5.5
408.5 K	128.6 ± 5.5
409.4 K	128.8 ± 5.5
409.5 K	128.7 ± 5.5
410 K	128.9 ± 5.5
410.4 K	128.9 ± 5.5
410.5 K	128.8 ± 5.5
411.4 K	129 ± 5.5
411.5 K	128.9 ± 5.5
412.4 K	129 ± 5.5
412.5 K	129 ± 5.5
413.4 K	129.1 ± 5.5
413.5 K	129.1 ± 5.5
414.4 K	129.2 ± 5.5
414.5 K	129.2 ± 5.5
415.4 K	129.4 ± 5.5
415.5 K	129.3 ± 5.5
416.4 K	129.5 ± 5.5
416.5 K	129.4 ± 5.5
417.4 K	129.6 ± 5.5
417.5 K	129.5 ± 5.5
418.4 K	129.7 ± 5.5
418.5 K	129.6 ± 5.5
419.4 K	129.8 ± 5.5
419.5 K	129.7 ± 5.5
420 K	129.8 ± 5.5
420.4 K	129.9 ± 5.5
420.5 K	129.8 ± 5.5
421.4 K	130 ± 5.5
421.5 K	129.9 ± 5.5
422.4 K	130.1 ± 5.5
422.5 K	130 ± 5.5
423.4 K	130.2 ± 5.5
423.5 K	130.1 ± 5.5
424.4 K	130.3 ± 5.5
424.6 K	130.1 ± 5.5
425.4 K	130.4 ± 5.5
425.6 K	130.2 ± 5.5
426.4 K	130.5 ± 5.5
426.6 K	130.3 ± 5.5
427.4 K	130.6 ± 5.5
427.6 K	130.4 ± 5.5
428.4 K	130.7 ± 5.5
428.6 K	130.5 ± 5.5
429.4 K	130.7 ± 5.5
429.6 K	130.7 ± 5.5
430 K	130.7 ± 5.5
430.4 K	130.8 ± 5.5
430.6 K	130.9 ± 5.6
431.4 K	130.8 ± 5.5
431.6 K	131 ± 5.6
432.4 K	130.8 ± 5.5
432.6 K	131.1 ± 5.6
433.4 K	130.9 ± 5.6
433.6 K	131.2 ± 5.6
434.4 K	130.9 ± 5.6
434.6 K	131.3 ± 5.6
435.4 K	131 ± 5.6
435.6 K	131.3 ± 5.6
436.4 K	131 ± 5.6
436.6 K	131.3 ± 5.6
437.4 K	131.1 ± 5.6
437.6 K	131.4 ± 5.6
438.4 K	131.2 ± 5.6
438.6 K	131.4 ± 5.6
439.4 K	131.3 ± 5.6
439.6 K	131.4 ± 5.6
440 K	131.5 ± 5.6
440.4 K	131.4 ± 5.6
440.6 K	131.5 ± 5.6
441.4 K	131.5 ± 5.6
441.6 K	131.6 ± 5.6
442.4 K	131.6 ± 5.6
442.6 K	131.7 ± 5.6
443.4 K	131.7 ± 5.6
443.6 K	131.9 ± 5.6
444.4 K	131.7 ± 5.6
444.6 K	132 ± 5.6
445.4 K	131.8 ± 5.6
445.6 K	132.2 ± 5.6
446.4 K	132 ± 5.6
446.6 K	132.3 ± 5.6
447.4 K	132.1 ± 5.6
447.6 K	132.4 ± 5.6
448.4 K	132.2 ± 5.6
448.6 K	132.5 ± 5.6
449.4 K	132.3 ± 5.6
449.6 K	132.6 ± 5.6
450 K	132.4 ± 5.6
450.4 K	132.4 ± 5.6
450.6 K	132.6 ± 5.6
451.4 K	132.5 ± 5.6
451.6 K	132.6 ± 5.6
452.4 K	132.5 ± 5.6
452.6 K	132.7 ± 5.6
453.4 K	132.6 ± 5.6
453.6 K	132.7 ± 5.6
454.4 K	132.7 ± 5.6
454.6 K	132.7 ± 5.6
455.4 K	132.7 ± 5.6
455.6 K	132.7 ± 5.6
456.4 K	132.8 ± 5.6
456.6 K	132.7 ± 5.6
457.4 K	132.9 ± 5.6
457.6 K	132.8 ± 5.6
458.4 K	133 ± 5.6
458.7 K	132.9 ± 5.6
459.4 K	133 ± 5.6
459.7 K	133.1 ± 5.6
460 K	133.2 ± 5.7
460.4 K	133.1 ± 5.6
460.7 K	133.2 ± 5.7
461.4 K	133.2 ± 5.7
461.7 K	133.4 ± 5.7
462.4 K	133.3 ± 5.7
462.7 K	133.5 ± 5.7
463.4 K	133.4 ± 5.7
463.7 K	133.6 ± 5.7
464.4 K	133.5 ± 5.7
464.7 K	133.7 ± 5.7
465.4 K	133.6 ± 5.7
465.7 K	133.7 ± 5.7
466.4 K	133.6 ± 5.7
466.7 K	133.8 ± 5.7
467.4 K	133.7 ± 5.7
467.7 K	133.8 ± 5.7
468.4 K	133.8 ± 5.7
468.7 K	133.9 ± 5.7
469.4 K	133.9 ± 5.7
469.7 K	133.9 ± 5.7
470 K	133.9 ± 5.7
470.4 K	134 ± 5.7
470.7 K	133.9 ± 5.7
471.4 K	134 ± 5.7
471.7 K	134 ± 5.7
472.4 K	134 ± 5.7
472.7 K	134.1 ± 5.7
473.4 K	134.1 ± 5.7
473.7 K	134.2 ± 5.7
474.4 K	134.1 ± 5.7
474.7 K	134.3 ± 5.7
475.4 K	134.1 ± 5.7
475.7 K	134.4 ± 5.7
476.4 K	134.2 ± 5.7
476.7 K	134.4 ± 5.7
477.4 K	134.2 ± 5.7
477.7 K	134.4 ± 5.7
478.4 K	134.4 ± 5.7
478.7 K	134.5 ± 5.7
479.4 K	134.5 ± 5.7
479.7 K	134.6 ± 5.7
480 K	134.6 ± 5.7
480.4 K	134.6 ± 5.7
480.7 K	134.7 ± 5.7
481.4 K	134.7 ± 5.7
481.7 K	134.7 ± 5.7
482.4 K	134.8 ± 5.7
482.7 K	134.7 ± 5.7
483.4 K	134.9 ± 5.7
483.7 K	134.8 ± 5.7
484.4 K	135 ± 5.7
484.7 K	134.9 ± 5.7
485.4 K	135.1 ± 5.7
485.7 K	135 ± 5.7
486.4 K	135.2 ± 5.7
486.7 K	135.1 ± 5.7
487.4 K	135.2 ± 5.7
487.7 K	135.1 ± 5.7
488.4 K	135.3 ± 5.7
488.7 K	135.2 ± 5.7
489.4 K	135.4 ± 5.7
489.7 K	135.2 ± 5.7
490 K	135.3 ± 5.7
490.4 K	135.4 ± 5.7
490.7 K	135.3 ± 5.7
491.4 K	135.5 ± 5.7
491.7 K	135.4 ± 5.7
492.4 K	135.5 ± 5.7
492.7 K	135.6 ± 5.8
493.4 K	135.5 ± 5.7
493.8 K	135.7 ± 5.8
494.4 K	135.5 ± 5.7
494.8 K	135.7 ± 5.8
